# Reference: publication PMC11939078, “TAK-994 mechanistic investigation into drug-induced liver injury” (Toxicological Sciences, 2025)
# Assays:
# [1] = system: Rat; experiment: Rat 26-week oral gavage toxicity study; assay type: in vivo; details: for Histopathological Liver Findings / ALT / AST / GLDH: rat 26-week; for ALT / AST / GLDH: mean (SD)
# Excerpt: TAK-994 performed well in tiered safety screening assays, with wide margins between in vitro IC50 and the predicted efficacious exposures (Table 1). […] Based on the safety profiles observed in these animal studies, TAK-994 progressed into phase I clinical trials.
# ^aAll dose levels had 15 animals per sex. No statistical difference was observed between the TAK-994 and control groups.
# [2] = system: human hepatocytes; experiment: Covalent binding of [14C]TAK-994 in human hepatocytes and CVB burden; assay type: in vitro ADME; details: for Daily CVB burden: most conservative values based on internal assay data (Table 1); for CVB burden: fa and fm assumed 1 (Table 3)
# Description: Covalent binding of TAK-994 was assessed by incubating [^14C]TAK-994 with human hepatocytes. The CVB level was determined by relating the total amount of radioactivity (pmol equivalent) to the protein concentration in each sample. Assessment of TAK-994 inhibition potential for the bile salt efflux pump (BSEP) was assessed by incubating [^3H(G)]taurocholic acid with TAK-994 (0 to 100 μM/l) or cyclosporin A after addition of 10 μl of membrane vesicles expressing BSEP or control membrane vesicles. Scintillation counts were assessed in two 5-min cycles.
# [^14C ]TAK-994 (10 μmol/L, supplied by Takeda Pharmaceutical Company Limited, Japan) was incubated with human hepatocytes (LIVERPOOL® 10-donor mixed gender, pooled, cryopreserved human hepatocytes [Lot No. ZOL, BioIVT]) as suspension culture in 24-well plates at 37°C under 5% CO2, humidified, for 0 or 2 hours. Seeding density of the cells was 3.0 × 10^5 viable cells/500 μL/well. A total of 3 replicates were assessed.
# The covalent-binding (CVB) level was determined by relating the total amount of radioactivity (pmol equivalent) to the protein concentration in each sample. To obtain the net covalent-binding (CVBnet), the average result of the “back-added” samples (CVBback) was subtracted from the average result of the incubated samples (CVBinc). For the determination of [^14C ]TAK-994 turnover in the incubation, part of the samples were analyzed by high-performance liquid chromatography with an online flow scintillation analyzer.
# Turnover = 1 − [percentage of TAK-994 relative to the total radioactivity at 2 hours] [percentage of TAK-994 relative to the total radioactivity at 0 hour]
# fcvb = CVB (pmol/mg protein) × [mean protein concentration (mg/well)] turnover × [substrate concentration (pmol/well)]
# CVB burden (mg) = D × fa × fm × fcvb
# D was set to 60, 180, 240, and 360 mg. Both fa and fm were set to a value of 1 (Thompson et al. 2012).
# [3] = system: nonTg-rasH2 mice; experiment: NonTg rasH2 mice 4-week oral gavage toxicity study; assay type: in vivo, mouse; details: for Histopathological Liver Findings / ALT / AST / GLDH: NonTg rasH2 mice 4-week; for ALT / AST / GLDH: mean (SD)
# Description: Although phase I human clinical trials were ongoing, additional GLP-compliant repeat-dose oral toxicity studies were conducted in nonTg-rasH2 mice, to enable carcinogenicity studies. […] The liver toxicity presented at high doses ≥300 mg/kg/day as single-cell necrosis of periportal hepatocytes associated with increased aspartate aminotransferase (AST), alkaline phosphatase, ALT, and glutamate dehydrogenase values that increased in a dose-proportional manner alongside cytochrome P450 induction (Table S2).
# ^cAll dose levels had 10 animals per sex.
# *p<0.05 using Shirley-Williams test.
structure (smiles),measurement,setting,value
CC(C)(O)C(=O)N1CC[C@H](NS(C)(=O)=O)[C@@H]1Cc1cccc(-c2cc(F)cc(F)c2)c1F.CC(C)(O)C(=O)N1CC[C@H](NS(C)(=O)=O)[C@@H]1Cc1cccc(-c2cc(F)cc(F)c2)c1F.O.O.O [TAK-994],Histopathological Liver Findings,"[1]; female, 50 mg/kg",No adverse findings
same,ALT,"[1]; female, 50 mg/kg",35 (12) IU/L
same,AST,"[1]; female, 50 mg/kg",64 (38) IU/L
same,GLDH,"[1]; female, 50 mg/kg",41 (78) IU/L
same,Histopathological Liver Findings,"[1]; female, 150 mg/kg",No adverse findings
same,ALT,"[1]; female, 150 mg/kg",37 (8) IU/L
same,AST,"[1]; female, 150 mg/kg",53 (13) IU/L
same,GLDH,"[1]; female, 150 mg/kg",12 (14) IU/L
same,Histopathological Liver Findings,"[1]; female, 1000 mg/kg",No adverse findings
same,ALT,"[1]; female, 1000 mg/kg",44 (14) IU/L
same,AST,"[1]; female, 1000 mg/kg",51 (6) IU/L
same,GLDH,"[1]; female, 1000 mg/kg",6 (4) IU/L
same,Histopathological Liver Findings,"[1]; male, 50 mg/kg",No adverse findings
same,ALT,"[1]; male, 50 mg/kg",29 (6) IU/L
same,AST,"[1]; male, 50 mg/kg",53 (8) IU/L
same,GLDH,"[1]; male, 50 mg/kg",12 (8) IU/L
same,Histopathological Liver Findings,"[1]; male, 150 mg/kg",No adverse findings
same,ALT,"[1]; male, 150 mg/kg",38 (31) IU/L
same,AST,"[1]; male, 150 mg/kg",53 (11) IU/L
same,GLDH,"[1]; male, 150 mg/kg",12 (7) IU/L
same,Histopathological Liver Findings,"[1]; male, 1000 mg/kg",No adverse findings
same,ALT,"[1]; male, 1000 mg/kg",31 (7) IU/L
same,AST,"[1]; male, 1000 mg/kg",50 (11) IU/L
same,GLDH,"[1]; male, 1000 mg/kg",7 (4) IU/L
same,"adverse liver findings, chronic dose toxicity study","[1]; rats, 6-mo, up to the high dose tested of 1,000 mg/kg",no adverse liver findings
same,Daily CVB burden,[2]; 90 mg BID,25.1 mg
same,Daily CVB burden,[2]; 180 mg BID,50.2 mg
same,CVB level,[2]; 2-h incubation of human hepatocytes with TAK-994 at 10 μM,389.2 pmol equivalent/mg protein
same,CVB burden,[2]; daily dose 60 mg (30 BID),2.94 mg
same,CVB burden,[2]; daily dose 180 mg (90 BID),8.82 mg
same,CVB burden,[2]; daily dose 240 mg (120 BID),11.8 mg
same,CVB burden,[2]; daily dose 360 mg (180 BID),17.6 mg
same,f CVB (fraction of metabolism leading to covalent binding),"[2]; human hepatocytes, 10 μM, 2 h",0.0490
same,Histopathological Liver Findings,"[3]; female, 300 mg/kg",Single cell necrosis of hepatocytes
same,ALT,"[3]; female, 300 mg/kg",175 (79)* IU/L
same,AST,"[3]; female, 300 mg/kg",163 (65)* IU/L
same,GLDH,"[3]; female, 300 mg/kg",172 (66)* IU/L
same,Histopathological Liver Findings,"[3]; female, 2000 mg/kg",Single cell necrosis of hepatocytes
same,ALT,"[3]; female, 2000 mg/kg",581 (278)* IU/L
same,AST,"[3]; female, 2000 mg/kg",317 (203)* IU/L
same,GLDH,"[3]; female, 2000 mg/kg",562 (324)* IU/L
same,Histopathological Liver Findings,"[3]; female, 4000 mg/kg",Single cell necrosis of hepatocytes
same,ALT,"[3]; female, 4000 mg/kg",1242 (604)* IU/L
same,AST,"[3]; female, 4000 mg/kg",473 (216)* IU/L
same,GLDH,"[3]; female, 4000 mg/kg",1384 (585)* IU/L
same,Histopathological Liver Findings,"[3]; male, 300 mg/kg",Single cell necrosis of hepatocytes
same,ALT,"[3]; male, 300 mg/kg",99 (57)* IU/L
same,AST,"[3]; male, 300 mg/kg",79 (34)* IU/L
same,GLDH,"[3]; male, 300 mg/kg",104 (68)* IU/L
same,Histopathological Liver Findings,"[3]; male, 2000 mg/kg",Single cell necrosis of hepatocytes
same,ALT,"[3]; male, 2000 mg/kg",337 (409)* IU/L
same,AST,"[3]; male, 2000 mg/kg",211 (299)* IU/L
same,GLDH,"[3]; male, 2000 mg/kg",331 (356)* IU/L
same,Histopathological Liver Findings,"[3]; male, 4000 mg/kg",Single cell necrosis of hepatocytes
same,ALT,"[3]; male, 4000 mg/kg",1164 (330)* IU/L
same,AST,"[3]; male, 4000 mg/kg",443 (150)* IU/L
same,GLDH,"[3]; male, 4000 mg/kg",1303 (408)* IU/L
same,"doses at which liver toxicity (single-cell necrosis of periportal hepatocytes, increased AST, ALP, ALT, GLDH) presented","[3]; nonTg-rasH2 mice, repeat-dose oral",≥ 300 mg/kg/day
